# What was measured:
# pancreatic progenitors = experiment: Beta cell differentiation from human pluripotent stem cells, flow cytometry of C-peptide and NKX6.1 positive cells; type: cell-based; settings: for effectiveness to induce differentiation of pancreatic progenitors to C-peptide positive cells, comparison within panel: day 27; for percentage / number of C-peptide positive cells compared to control: end of differentiation on day 27, compounds added day 15 to day 27
# Method: Beta cells differentiated from human pluripotent stem cell lines as described in Example 2 (Sui et al., 2018b). Indicated compounds that function as cell cycle inhibitors were added individually from day 15 to day 27 with concentration listed below:
# The DNA replication inhibitors used in this study: 0.1 μM, 0.5 μM and 1 μM Aphidicolin (A0781, Sigma-Aldrich); 2.5 μM Cisplatin (232120, EMD Millipore); 100 μM Ciprofloxacin (S2027, Selleck Chemicals); 10 μM Pyridostatin (S7444, Selleck Chemicals); 10 μM E2F Inhibitor (324461, EMD Millipore); 0.05 μM A485 (6387, Tocris); 2 μM RL5a (SML2187, Sigma-Aldrich); and 2 μM Etoposide (E55500, Research Products International). Indicated compounds were added individually from day 15 to day 27 with indicated concentration.
# (§1) The beta cell clusters were dissociated using TrypLE™ Express into single cells. Cells were fixed with 4% PFA for 10 min and followed by permeabilization at −20° C. with cold methanol for 10 min. Primary antibodies were added at a dilution of 1:100 in autoMACs Rinsing Solution (Cat. No. 130-091-222, Miltenyi Biotec) containing 0.5% BSA at 4° C. for 1 hour. Secondary antibodies were added at a dilution of 1:500 at room temperature for 1 hour. The cells were filtered with BD Falcon 12×75 mm tube with cell strainer cap (Cat. No. 352235, BD) and subsequently analyzed by flow cytometer. Data were analyzed using Flowjo software. Negative controls were performed by only adding secondary antibodies.
# Aphidicolin (APH), a DNA polymerase inhibitor, was used to inhibit DNA replication (Koundrioukoff et al., 2013). […] The insulin expressing cells were evenly distributed in the islet-like clusters with high percentage indicated by the expression of GFP, whereas some parts of the clusters in control remained GFP negative (FIG. 1D).
# [1] = tested on: stem cell derived beta cells; experiment: Stability of beta cell identity in long-term culture after removal of compound at day 27; type: cell-based, human; settings: additional 30 days of culture (day 60)
# Method: as §1
# With APH, a high proportion of cells in the islet-like clusters were positive for C-peptide and NKX6.1, a transcription factor for maintaining the beta cell identity and functional maturation (Schaffer et al., 2013). […] Beta cells were cultured for additional 7 days until about day 34 and 30 days until about day 60 upon removal of these compounds at day 27. […] In contrast, in APH treated cells, there was no decrease in C-peptide or NKX6.1 on day 34 (FIG. 5A). […] After further culturing of the cells for extra 30 days, very few of cells in control group remained GFP expression and were positive for C-peptide.
# The ability of other DNA replication inhibitors to stabilize the beta cell identity was investigated. The expressions of GFP were maintained after releasing cells from these inhibitors for 7 days until day 34. With additional 30 days of culture, the expressions of GFP were reduced in all conditions at certain levels, but the cells treated with Cis and Eto expressed higher GFP than the cells treated with APH compared to the other conditions (FIG. 5E, FIG. 5F).
Compound,"effectiveness to induce differentiation of pancreatic progenitors to C-peptide positive cells, comparison within panel (pancreatic progenitors)",expressions of GFP (insulin) [1],percentage / number of C-peptide positive cells compared to control (pancreatic progenitors)
COc1cc([C@@H]2c3cc4c(cc3[C@@H](O[C@@H]3O[C@@H]5CO[C@@H](C)O[C@H]5[C@H](O)[C@H]3O)[C@H]3COC(=O)[C@H]23)OCO4)cc(OC)c1O [Etoposide],most effective,higher GFP,
CNC(=O)Nc1ccc2c(c1)CC[C@@]21OC(=O)N(CC(=O)N(Cc2ccc(F)cc2)[C@@H](C)C(F)(F)F)C1=O [P300 inhibitor],,,no significant increase
RL5a,less effective,,failed to increase
O=C1NC(=O)c2c1c1c3ccccc3[nH]c1c1[nH]c3cc(Br)ccc3c21 [CDK4],less effective,,
"N.N.[Cl][Pt][Cl] [cisplatin, Cisplatin]",most effective,higher GFP,

# From US12605407B2, “Methods to induce terminal differentiation in stem cells by interfering with DNA replication, methods of inducing pancreatic differentiation, and differentiated cells obtained thereof” (priority 2018, dated 2026)
